These results are taken from patent publication US10709129B2, “Synergistic combination of bis-(3-aminopropyl)dodecylamine and sorbic acid” (DDP SPECIALTY ELECTRONIC MATERIALS US, INC., priority 2016, dated 2020).

Some results are limits rather than exact numbers.

Test [1] deals with Pseudomonas aeruginosa (DSMZ#939). Put plainly: Minimum Inhibitory Concentration (MIC) test and synergy index (Kull method), TSB pH 5. The test is classed as cell-based. The settings on record: DSM 939 / DSMZ939, Pseudomonas aeruginosa DSM# 939, 30° C., 48 hours, read-out: MIC results for single biocides. Here is the method:
(§1) The synergism of the biocides combination of the present invention was determined using the Minimum Inhibitory (MIC) test method described by Kull, F. C., et. al in Applied Microbiology 9:538-541 (1961). The formula to calculate the synergy index (SI) is SI=Qa/QA+Qb/QB Where • QA=minimum inhibitory concentration in ppm of compound A acting alone • Qa=minimum inhibitory concentration in ppm of compound A in the mixture. • QB=minimum inhibitory concentration in ppm of compound B acting alone. • Qb=minimum inhibitory concentration in ppm of compound B in the mixture. […] The Minimum Inhibitory Concentration Test (MIC) is designed to evaluate the lowest concentration of a biocide, biocide blend or biocide combination to prevent bacteria growing in a defined broth. […] The synergy testing was carried out as follows: • 1. The test was executed with a Hamilton MLStarPlus robot using automated turbidity reading with BioTek Synergy H4 plate reader. • 2. […] Reading of the results was carried out by measuring absorbance at 600 nm for each sample at the beginning of the test (tzero) and after incubation (tendpoint). tendpoint was chosen at 48 hours for bacteria and 72 hours for yeast. The difference in absorbance between tendpoint and tzero was used to determine growth (Δ>0.2) or no growth (Δ≤0.2).

Test [2] deals with Candida albicans (DSMZ#1386). Described as above. Particulars: DSM 1386 / DSMZ1386, Candida albicans DSM# 1386, 30° C., 72 hours, read-out: MIC results for single biocides. The test is classed as cell-based. As to the method: as §1

A word on the MIC: it is the lowest concentration that inhibits growth of the organism.

Take `C/C=C/C=C/C(=O)O` [SA, sorbic acid]: the MIC in test [1] was found to be 1230 mg/L; in test [2], 725 mg/L.

On to `CCCCCCCCCCCCN(CCCN)CCCN` [BDA, bis-(3-aminopropyl)dodecylamine], for which the MIC in test [1] is 200 mg/L; in test [2], no less than 260 mg/L.
